Data on three compounds can be found in patent US11639506B2, “Recombinant yeast having increased tolerance to ionic liquids and methods of use” (Wisconsin Alumni Research Foundation, priority 2015, dated 2023).

Experiment [1] deals with Y133 ptk2Δ. The format is cell-based, S. cerevisiae. As to conditions: relative to Y133, p<0.01. How it is done: Compounds, initial screening, and IC50 determination: Compounds tested were purchased from Sigma-Aldrich. […] Plates were read on a TECAN M1000 over a 48 hour growth period. […] When presented, IC50 values for growth inhibition were calculated from triplicate 8 point dose curves and SigmaPlot 12.0. When presented, error bars are mean±standard error (S.E.) of at least 3 replicates.

The subject of experiment [2] is Y133 ptk2Δ. The format is cell-based, S. cerevisiae. As to conditions: 1% BMIM-Cl, aerobic and anaerobic conditions. The text has this: We deleted PTK2 in our xylose fermenting yeast GLBRCY133 (Parreiras et al.,2014).
Experiment [3] relates to S. cerevisiae. Put plainly: Dose curve for chemical genomic profiling concentration. The experiment is classed as cell-based. As to conditions: 88 μg/ml, YP-galactose media, 24 hours. How it is done:
Chemical genomic analysis: Chemical genomic analysis of poacic acid was performed as described as described previously (Fung et al., 2013; Parsons et al., 2006). The tested yeast deletion collection had 4000 strains using the genetic background described in Andrusiak (2012). The optimal inhibitory concentration of poacic acid for chemical genomic profiling (70-80% growth versus solvent control in YP-galactose media after 24 hours of growth) was determined using an 8 point dose curve. A concentration of 88 μg/ml inhibited growth within this range. 200 μl cultures of the pooled, deletion collection of S. cerevisiae deletion mutants were grown with 88 μg/ml poacic acid or a DMSO control in triplicate for 48 hours at 30° C. Genomic DNA was extracted using the Epicentre MasterPure™ Yeast DNA purification kit. Mutant-specific molecular barcodes were amplified with specially designed multiplex primers (Smith et al., 2009). The barcodes were sequenced using an Illumina MiSeq. Three replicates of each condition (poacic acid vs. DMSO) were sequenced. One DMSO control was lost due to poor sequencing reads. The barcode counts for each yeast deletion mutant in the presence of poacic acid were normalized against the DMSO control conditions to define sensitivity or resistance of individual strains. […]

For the compound `CCCCn1cc[n+](C)c1.[Cl-]` [BMIM-Cl, 1-butyl-3-methylimidazolium chloride], the “tolerance conferred by deletion of PTK2 in Y133” value in experiment [1] is “significantly greater tolerance”. In experiment [2], the “tolerance and fermentative capacity of PTK2 deletion” value is “greater tolerance and has greater fermentative capacity”.
Take `CC(=O)[O-].CCn1cc[n+](C)c1` [EMIM-Ac, 1-ethyl-3-methylimidazolium acetate]: the “tolerance conferred by deletion of PTK2 in Y133” value in experiment [1] was “significantly greater tolerance”.
For poacic acid, the “growth versus solvent control” value in experiment [3] was 70-80%.
